{"source": "PubChem BioAssay AID1963836", "about": "(Molecular Pharmacology Branch, DTP, NCI, 2024);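 note: spheroids exposed to compounds for seven days before readout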", "test_system": "857933-349-R-J2-PDC complex spheroid viability", "test": "Anticancer human tumor 857933-349-R-J2-PDC patient-derived colon adenocarcinoma cell line growth inhibition [POLQ]", "conditions": "for IC50: curve of first compound; for viability, T/C: stronger effect = lower value", "outline": "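Growth inhibition in 3D: complex spheroids (tumor PDC, HUVEC, MSC) treated with POLQ inhibitor combinations; where Cmax unknown, highest tested concentration 10 microM, except SN-38 at 1 microM.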", "key": {"[1]": {"conditions": "second compound 0.0316 µM, first compound 0.0316 µM"}, "[2]": {"conditions": "second compound 0.0316 µM, first compound 0.1 µM"}, "[3]": {"conditions": "second compound 0.1 µM, first compound 0.0316 µM"}, "[4]": {"conditions": "second compound 0.1 µM, first compound 0.1 µM"}, "[5]": {"conditions": "second compound 0.316 µM, first compound 0.0316 µM"}, "[6]": {"conditions": "second compound 0.316 µM, first compound 0.1 µM"}, "[7]": {"conditions": "second compound 1 µM, first compound 0.0316 µM"}, "[8]": {"conditions": "second compound 1 µM, first compound 0.1 µM"}, "[9]": {"conditions": "second compound 3.16 µM, first compound 0.0316 µM"}, "[10]": {"conditions": "second compound 3.16 µM, first compound 0.1 µM"}, "[11]": {"conditions": "second compound 10 µM, first compound 0.0316 µM"}, "[12]": {"conditions": "second compound 10 µM, first compound 0.1 µM"}}, "data": [{"smiles": "COc1ccc([C@@H](O)c2cc(-c3ncnc4cc(N5CCOCC5)ccc34)c(F)cc2Cl)nn1", "note": "+ Nc1ccc(C#CCN(C(=O)Cc2ncc(C(F)(F)F)cc2C(F)(F)F)c2ccc(F)cc2)nn1", "values": [{"measurement": "IC50", "setting": "second compound 0.0316 µM", "result": "> 10", "unit": "µM"}, {"measurement": "IC50", "setting": "second compound 0.1 µM", "result": "> 10", "unit": "µM"}, {"measurement": "IC50", "setting": "second compound 0.316 µM", "result": 9.69, "unit": "µM"}, {"measurement": "IC50", "setting": "second compound 1 µM", "result": "> 10", "unit": "µM"}, {"measurement": "IC50", "setting": "second compound 3.16 µM", "result": "> 10", "unit": "µM"}, {"measurement": "IC50", "setting": "second compound 10 µM", "result": "> 10", "unit": "µM"}, {"measurement": "viability, T/C", "setting": "[1]", "result": 86.3, "unit": "%"}, {"measurement": "viability, T/C", "setting": "[2]", "result": 104, "unit": "%"}, {"measurement": "viability, T/C", "setting": "second compound 0.0316 µM, first compound 0.316 µM", "result": 103, "unit": "%"}, {"measurement": "viability, T/C", "setting": "second compound 0.0316 µM, first compound 1 µM", "result": 92.6, "unit": "%"}, {"measurement": "viability, T/C", "setting": "second compound 0.0316 µM, first compound 3.16 µM", "result": 77.2, "unit": "%"}, {"measurement": "viability, T/C", "setting": "second compound 0.0316 µM, first compound 10 µM", "result": 56.2, "unit": "%"}, {"measurement": "viability, T/C", "setting": "[3]", "result": 91.4, "unit": "%"}, {"measurement": "viability, T/C", "setting": "[4]", "result": 100, "unit": "%"}, {"measurement": "viability, T/C", "setting": "second compound 0.1 µM, first compound 0.316 µM", "result": 96.8, "unit": "%"}, {"measurement": "viability, T/C", "setting": "second compound 0.1 µM, first compound 1 µM", "result": 84.3, "unit": "%"}, {"measurement": "viability, T/C", "setting": "second compound 0.1 µM, first compound 3.16 µM", "result": 78.6, "unit": "%"}, {"measurement": "viability, T/C", "setting": "second compound 0.1 µM, first compound 10 µM", "result": 60.8, "unit": "%"}, {"measurement": "viability, T/C", "setting": "[5]", "result": 84.6, "unit": "%"}, {"measurement": "viability, T/C", "setting": "[6]", "result": 91.2, "unit": "%"}, {"measurement": "viability, T/C", "setting": "second compound 0.316 µM, first compound 0.316 µM", "result": 81.2, "unit": "%"}, {"measurement": "viability, T/C", "setting": "second compound 0.316 µM, first compound 1 µM", "result": 94.7, "unit": "%"}, {"measurement": "viability, T/C", "setting": "second compound 0.316 µM, first compound 3.16 µM", "result": 80.7, "unit": "%"}, {"measurement": "viability, T/C", "setting": "second compound 0.316 µM, first compound 10 µM", "result": 48.7, "unit": "%"}, {"measurement": "viability, T/C", "setting": "[7]", "result": 96.8, "unit": "%"}, {"measurement": "viability, T/C", "setting": "[8]", "result": 89.3, "unit": "%"}, {"measurement": "viability, T/C", "setting": "second compound 1 µM, first compound 0.316 µM", "result": 93.4, "unit": "%"}, {"measurement": "viability, T/C", "setting": "second compound 1 µM, first compound 1 µM", "result": 76.6, "unit": "%"}, {"measurement": "viability, T/C", "setting": "second compound 1 µM, first compound 3.16 µM", "result": 84.5, "unit": "%"}, {"measurement": "viability, T/C", "setting": "second compound 1 µM, first compound 10 µM", "result": 59.6, "unit": "%"}, {"measurement": "viability, T/C", "setting": "[9]", "result": 88.2, "unit": "%"}, {"measurement": "viability, T/C", "setting": "[10]", "result": 95.8, "unit": "%"}, {"measurement": "viability, T/C", "setting": "second compound 3.16 µM, first compound 0.316 µM", "result": 86.5, "unit": "%"}, {"measurement": "viability, T/C", "setting": "second compound 3.16 µM, first compound 1 µM", "result": 84.1, "unit": "%"}, {"measurement": "viability, T/C", "setting": "second compound 3.16 µM, first compound 3.16 µM", "result": 75.3, "unit": "%"}, {"measurement": "viability, T/C", "setting": "second compound 3.16 µM, first compound 10 µM", "result": 60, "unit": "%"}, {"measurement": "viability, T/C", "setting": "[11]", "result": 99.9, "unit": "%"}, {"measurement": "viability, T/C", "setting": "[12]", "result": 89.8, "unit": "%"}, {"measurement": "viability, T/C", "setting": "second compound 10 µM, first compound 0.316 µM", "result": 95.3, "unit": "%"}, {"measurement": "viability, T/C", "setting": "second compound 10 µM, first compound 1 µM", "result": 76.3, "unit": "%"}, {"measurement": "viability, T/C", "setting": "second compound 10 µM, first compound 3.16 µM", "result": 76.8, "unit": "%"}, {"measurement": "viability, T/C", "setting": "second compound 10 µM, first compound 10 µM", "result": 51.6, "unit": "%"}]}, {"smiles": "Cn1ncnc1[C@H]1c2n[nH]c(=O)c3cc(F)cc(c23)N[C@@H]1c1ccc(F)cc1", "note": "+ Nc1ccc(C#CCN(C(=O)Cc2ncc(C(F)(F)F)cc2C(F)(F)F)c2ccc(F)cc2)nn1", "values": [{"measurement": "IC50", "setting": "second compound 0.0316 µM", "result": "> 0.1", "unit": "µM"}, {"measurement": "IC50", "setting": "second compound 0.1 µM", "result": "> 0.1", "unit": "µM"}, {"measurement": "IC50", "setting": "second compound 0.316 µM", "result": "> 0.1", "unit": "µM"}, {"measurement": "IC50", "setting": "second compound 1 µM", "result": "> 0.1", "unit": "µM"}, {"measurement": "IC50", "setting": "second compound 3.16 µM", "result": "> 0.1", "unit": "µM"}, {"measurement": "IC50", "setting": "second compound 10 µM", "result": "> 0.1", "unit": "µM"}, {"measurement": "viability, T/C", "setting": "second compound 0.0316 µM, first compound 0.000316 µM", "result": 90.9, "unit": "%"}, {"measurement": "viability, T/C", "setting": "second compound 0.0316 µM, first compound 0.001 µM", "result": 83.9, "unit": "%"}, {"measurement": "viability, T/C", "setting": "second compound 0.0316 µM, first compound 0.00316 µM", "result": 80.7, "unit": "%"}, {"measurement": "viability, T/C", "setting": "second compound 0.0316 µM, first compound 0.01 µM", "result": 90, "unit": "%"}, {"measurement": "viability, T/C", "setting": "[1]", "result": 95, "unit": "%"}, {"measurement": "viability, T/C", "setting": "[2]", "result": 85.1, "unit": "%"}, {"measurement": "viability, T/C", "setting": "second compound 0.1 µM, first compound 0.000316 µM", "result": 92.7, "unit": "%"}, {"measurement": "viability, T/C", "setting": "second compound 0.1 µM, first compound 0.001 µM", "result": 92.7, "unit": "%"}, {"measurement": "viability, T/C", "setting": "second compound 0.1 µM, first compound 0.00316 µM", "result": 94, "unit": "%"}, {"measurement": "viability, T/C", "setting": "second compound 0.1 µM, first compound 0.01 µM", "result": 104, "unit": "%"}, {"measurement": "viability, T/C", "setting": "[3]", "result": 103, "unit": "%"}, {"measurement": "viability, T/C", "setting": "[4]", "result": 91.5, "unit": "%"}, {"measurement": "viability, T/C", "setting": "second compound 0.316 µM, first compound 0.000316 µM", "result": 104, "unit": "%"}, {"measurement": "viability, T/C", "setting": "second compound 0.316 µM, first compound 0.001 µM", "result": 101, "unit": "%"}, {"measurement": "viability, T/C", "setting": "second compound 0.316 µM, first compound 0.00316 µM", "result": 97, "unit": "%"}, {"measurement": "viability, T/C", "setting": "second compound 0.316 µM, first compound 0.01 µM", "result": 105, "unit": "%"}, {"measurement": "viability, T/C", "setting": "[5]", "result": 75, "unit": "%"}, {"measurement": "viability, T/C", "setting": "[6]", "result": 97.6, "unit": "%"}, {"measurement": "viability, T/C", "setting": "second compound 1 µM, first compound 0.000316 µM", "result": 105, "unit": "%"}, {"measurement": "viability, T/C", "setting": "second compound 1 µM, first compound 0.001 µM", "result": 85.8, "unit": "%"}, {"measurement": "viability, T/C", "setting": "second compound 1 µM, first compound 0.00316 µM", "result": 86, "unit": "%"}, {"measurement": "viability, T/C", "setting": "second compound 1 µM, first compound 0.01 µM", "result": 97.5, "unit": "%"}, {"measurement": "viability, T/C", "setting": "[7]", "result": 93.9, "unit": "%"}, {"measurement": "viability, T/C", "setting": "[8]", "result": 93.6, "unit": "%"}, {"measurement": "viability, T/C", "setting": "second compound 3.16 µM, first compound 0.000316 µM", "result": 86.2, "unit": "%"}, {"measurement": "viability, T/C", "setting": "second compound 3.16 µM, first compound 0.001 µM", "result": 80.2, "unit": "%"}, {"measurement": "viability, T/C", "setting": "second compound 3.16 µM, first compound 0.00316 µM", "result": 93.5, "unit": "%"}, {"measurement": "viability, T/C", "setting": "second compound 3.16 µM, first compound 0.01 µM", "result": 98, "unit": "%"}, {"measurement": "viability, T/C", "setting": "[9]", "result": 111, "unit": "%"}, {"measurement": "viability, T/C", "setting": "[10]", "result": 94.2, "unit": "%"}, {"measurement": "viability, T/C", "setting": "second compound 10 µM, first compound 0.000316 µM", "result": 84.8, "unit": "%"}, {"measurement": "viability, T/C", "setting": "second compound 10 µM, first compound 0.001 µM", "result": 82.1, "unit": "%"}, {"measurement": "viability, T/C", "setting": "second compound 10 µM, first compound 0.00316 µM", "result": 98.3, "unit": "%"}, {"measurement": "viability, T/C", "setting": "second compound 10 µM, first compound 0.01 µM", "result": 92.2, "unit": "%"}, {"measurement": "viability, T/C", "setting": "[11]", "result": 93.2, "unit": "%"}, {"measurement": "viability, T/C", "setting": "[12]", "result": 61.7, "unit": "%"}]}]}
